Source: article PMC3855329, “A Fluorescence-Based Thermal Shift Assay Identifies Inhibitors of Mitogen Activated Protein Kinase Kinase 4” (PLoS ONE, 2013)
Read-outs that look alike come from different tables or passages of the source.

How the values were obtained:
human MAP2K4-EE [1] = target: T1, human MAP2K4-EE (Homo sapiens, UniProt P45985, S257E/T261E); assay: Fluorescence-based thermal shift (FTS) assay; assay type: binding; conditions: for ΔTm at 10 µM: 10 µM compound, mean ± SD
T1 construct: Human MAP2K4-EE (residues 37–399); His tag (pMCSG7 vector, TEV-cleavable) (N); made in house; host or cells: E. coli KRX cells with pGro7 (GroEL/GroES)
T1 sequence (P45985 37-399 S257E/T261E): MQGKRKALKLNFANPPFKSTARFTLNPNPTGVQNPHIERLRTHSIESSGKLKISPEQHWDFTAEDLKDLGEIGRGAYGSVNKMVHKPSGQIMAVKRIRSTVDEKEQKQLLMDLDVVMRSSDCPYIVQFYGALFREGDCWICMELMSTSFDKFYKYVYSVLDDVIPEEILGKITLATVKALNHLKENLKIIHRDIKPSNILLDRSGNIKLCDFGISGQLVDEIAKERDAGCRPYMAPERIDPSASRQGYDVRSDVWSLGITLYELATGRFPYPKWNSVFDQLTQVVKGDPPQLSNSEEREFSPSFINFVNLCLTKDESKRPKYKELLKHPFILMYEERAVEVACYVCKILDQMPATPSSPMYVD
Protocol: Small molecule screening by FTS assay was performed as described previously, [23] but with modifications, using an Echo550 (Labcyte) for compound transfer and a Mosquito (TTP Labtech) to dispense protein into 384 well PCR plates. Purified MAP2K4-EE was appropriately diluted in a buffer containing 100 mM Hepes, pH 7.5, 150 mM NaCl. […] The PCR plates were sealed with optical seal, shaken, and centrifuged after protein and compounds were added. […] Curve fitting, melting temperature calculation and report generation on the raw FTS data were performed using software developed by us. Initial screening with the 2000 compound Spectrum Collection was carried out in a pooled fashion. Specifically, 3 compounds were added at 10 µM concentration to each well and wells with positive Tm shift >2°C were then dissected to identify the responsible compound.

[2] = target: T2, MAP3K1 activated murine MAP2K4 (MAP2K4-AC) (Mus musculus, UniProt P47809); assay: In vitro MAP2K4 kinase assay, JNK1 (K55M) substrate, Western blot densitometry; assay type: biochemical
T2 construct: purchased Millipore 14-377
T2 sequence (P47809 1-397): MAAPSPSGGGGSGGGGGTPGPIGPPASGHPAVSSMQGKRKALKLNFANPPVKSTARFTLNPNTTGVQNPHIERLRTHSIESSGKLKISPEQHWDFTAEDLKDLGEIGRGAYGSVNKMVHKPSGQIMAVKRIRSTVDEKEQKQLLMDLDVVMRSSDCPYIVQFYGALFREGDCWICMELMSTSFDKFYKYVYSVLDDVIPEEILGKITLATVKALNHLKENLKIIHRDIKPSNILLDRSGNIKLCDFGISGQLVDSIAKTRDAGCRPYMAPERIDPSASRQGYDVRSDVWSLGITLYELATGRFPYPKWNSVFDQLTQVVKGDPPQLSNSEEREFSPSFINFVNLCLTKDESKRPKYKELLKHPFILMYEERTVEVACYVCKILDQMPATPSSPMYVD
Protocol: In addition to activated MAP2K4, the in vitro kinase assay used either kinase dead JNK1-K55M (Abcam # ab95248) or kinase dead p38α MAPK-K53A (generously provided by Dr. Martin Watterson, Northwestern) as the substrate, ATP (Cell Signaling) and kinase assay buffer (25 mM Tris-HCl (pH 7.5), 5 mM beta-glycerophosphate, 2 mM dithiothreitol (DTT), 0.1 mM Na3VO4, 10 mM MgCl2). […] All other compounds were purchased from Sigma-Aldrich. To tubes containing 13 µl of 1.5X buffer on ice the assay reagents were added as indicated for a final reaction volume of 20 µL: 25 ng of MAP2K4-AC (stocks of 25 ng/uL were prepared and aliquoted from a 10 ug vial after the supplier concentration was verified using a Nanodrop 1000), inhibitors as denoted (from DMSO stock solutions), 1 µM final ATP, and 1 µg of JNK1 or p38 MAPK. […] All kinase assays were performed twice at separate times.
(§1) Twenty µl of reaction mixtures were separated by sodium dodecyl sulfate-polyacrylamide gel electrophoresis using precast 4–20% gradient gels (Biorad), per the manufacturers' instructions, and transferred onto 0.45 µm nitrocellulose membranes (Biorad). […] Bands were visualized with the aid of chemiluminescence reagents (GE Healthcare) after hybridization with a HRP conjugated rabbit secondary antibody (GE Healthcare). […] The bands were quantified using ImageJ software; normalized inhibitor-response data were plotted using Prism 6 to determine relative IC50 values.

[3] = target: T2, MAP3K1 activated murine MAP2K4 (MAP2K4-AC); assay: In vitro MAP2K4 kinase assay, p38α MAPK (K53A) substrate, Western blot densitometry; assay type: biochemical
Protocol: In addition to activated MAP2K4, the in vitro kinase assay used either kinase dead JNK1-K55M (Abcam # ab95248) or kinase dead p38α MAPK-K53A (generously provided by Dr. Martin Watterson, Northwestern) as the substrate, ATP (Cell Signaling) and kinase assay buffer (25 mM Tris-HCl (pH 7.5), 5 mM beta-glycerophosphate, 2 mM dithiothreitol (DTT), 0.1 mM Na3VO4, 10 mM MgCl2). […] Geraldol, 2′,4′-dihydroxychalcone and 3,2′-dihyrdoxy-4,4′,6′-trimethoxychalcone were purchased from Indofine Chemical Company. All other compounds were purchased from Sigma-Aldrich. To tubes containing 13 µl of 1.5X buffer on ice the assay reagents were added as indicated for a final reaction volume of 20 µL: 25 ng of MAP2K4-AC (stocks of 25 ng/uL were prepared and aliquoted from a 10 ug vial after the supplier concentration was verified using a Nanodrop 1000), inhibitors as denoted (from DMSO stock solutions), 1 µM final ATP, and 1 µg of JNK1 or p38 MAPK. […] All kinase assays were performed twice at separate times.
as §1

human PCa cells = test system: human PCa cells; design: method as in PMID 18339885; conditions: orthotopically implanted into mice; cited from earlier work
MMP-2 expression = test system: MMP-2 expression; design: method as in PMID 19638505; conditions: prospective administration to humans; cited from earlier work
human MAP2K4-EE [4] = target: T1, human MAP2K4-EE; assay: Fluorescence-based thermal shift (FTS) assay; assay type: binding; conditions: 1 mM ligand
[5] = kinase dead JNK1-K55M substrate, 1 µM ATP, mean (95% confidence intervals), read-out: IC50-JNK1
[6] = kinase dead p38α MAPK-K53A substrate, 1 µM ATP, mean (95% confidence intervals), read-out: IC50-p38

Structure (SMILES)	ΔTm at 10 µM (human MAP2K4-EE [1]; n = 3, 10 µM)	ΔTm at 10 µM (human MAP2K4-EE [1]; n = 3, read-out: ΔTm at 10 µM)	IC50 [3, 6]	further results
O=C1c2ccccc2C(=O)c2c1ccc(O)c2O [Alizarin, 1,2-dihydroxyanthraquinone]				IC50 [3]: 0.9 µM
Nc1ncnc2c1c(I)cn2[C@@H]1O[C@H](CO)[C@@H](O)[C@H]1O [5-iodotubercidin]	4.29±0.07 °C	4.3 °C	0.2 µM	IC50 [2, 5]: 2.8 µM
O=c1c(O)c(-c2ccccc2)oc2cc(O)ccc12 [3,7-dihydroxyflavone]	2.55±0.20 °C	2.5 °C	0.8 µM	
COc1cc(-c2oc3cc(O)ccc3c(=O)c2O)ccc1O [Geraldol, 3,4′,7-Trihydroxy-3′-methoxyflavone]				IC50 [3]: 0.8 µM
Cc1ccc(-c2nn(C(C)(C)C)c3ncnc(N)c23)cc1 [PP1]	2.55±0.03 °C	2.5 °C		IC50 [2]: 16.9 µM; IC50 [3]: 13.8 µM
O=c1c(-c2ccc(O)cc2)coc2cc(O)cc(O)c12 [genistein, 4,5,7-trihydroxyisoflavone]				metastasis of human PCa cells (human PCa cells): inhibits the metastasis; MMP-2 expression in prostate tissue (MMP-2 expression): selectively decreases MMP-2 expression
O=C(/C=C/c1ccccc1)c1ccc(O)cc1O [2′,4′-dihydroxychalcone]	3.67±0.50 °C	3.7 °C	16.9 µM	
CC(C)(C)n1nc(-c2ccc(Cl)cc2)c2c(N)ncnc21 [PP2]	2.33±0.04 °C	2.3 °C		IC50 [2]: 22.3 µM; IC50 [3]: 39.9 µM
NCC(=O)O [L-glycine]				shift in Tm (ΔTm) (human MAP2K4-EE [4]): did not induce thermal stability
Nc1ncnc2c1ncn2[C@@H]1O[C@H](COP(=O)(O)OP(=O)(O)NP(=O)(O)O)[C@@H](O)[C@H]1O [AMP-PNP]				shift in Tm (ΔTm) (human MAP2K4-EE [4]): highest ΔTm values
O=c1c(O)c(-c2ccc(O)c(O)c2)oc2cc(O)cc(O)c12 [Quercetin]		2.75 ± 0.22 °C	2 µM	IC50 [2, 5]: 1.7 µM
O=C(CCc1ccc(O)cc1)c1c(O)cc(O)cc1O [Phloretin]	2.69±0.33 °C	2.7 °C		
O=c1c(-c2ccc(O)cc2)coc2cc(O)ccc12 [Daidzein]				thermal stabilization of MAP2K4 (concentration dependent thermal shift) (human MAP2K4-EE [1]; 1, 10 and 25 µM): no such thermal stabilization effect; inhibition of MAP2K4 activity ([3]; concentrations of up to 200 µM, p38 MAPK (K53A) or JNK1 (K55M) substrates): does not inhibit
Nc1ncnc2c1ncn2[C@@H]1O[C@H](COP(=O)(O)OP(=O)(O)OP(=O)(O)O)[C@@H](O)[C@H]1O [ATP]				shift in Tm (ΔTm) (human MAP2K4-EE [4]): > 10 °C

Second part, led by results:

ΔTm at 10 µM (human MAP2K4-EE [1]; n = 3, 10 µM)	ΔTm at 10 µM (human MAP2K4-EE [1]; n = 3, read-out: ΔTm at 10 µM)	IC50 [3, 6]	Structure (SMILES)	further results
6.4±0.06 °C	> 4 °C	0.4 µM	O=C1c2ccccc2-c2n[nH]c3cccc1c23 [SP600125]	IC50 [2, 5]: 0.7 µM
1.78±0.42 °C	1.8 °C	10.1 µM	O=c1cc(-c2ccccc2)oc2cc(O)cc(O)c12 [Chrysin, 5,7-dihydroxyflavone]	
	2.8 ± 0.23 °C	15.9 µM	O=c1cc(-c2ccc(O)cc2)oc2cc(O)cc(O)c12 [Apigenin]	IC50 [2, 5]: 20.1 µM
2.26±0.15 °C	2.3 °C	28.5 µM	COc1cc(/C=C(\C#N)C(N)=O)cc(CSc2nc3ccccc3s2)c1O [AG825]	IC50 [2, 5]: 25 µM
